# Reference: PubChem BioAssay AID1259407 (Chemical Carcinogenesis Research Information System (CCRIS), 2018)
# Calls of active or inactive are those of the source. The rule behind the calls is not given here.
# Test system: CCRIS mutagenicity, Ames/micronucleus/aberration tests
# Experiment: CCRIS mutagenicity studies
# [1] = Test System: AMES SALMONELLA TYPHIMURIUM, Strain/Indicator: TA98, Metabolic Activation: NONE, Method: PREINCUBATION
# [2] = Test System: AMES SALMONELLA TYPHIMURIUM, Strain/Indicator: TA100, Metabolic Activation: NONE, Method: PREINCUBATION
# [3] = Test System: AMES SALMONELLA TYPHIMURIUM, Strain/Indicator: TA1535, Metabolic Activation: NONE, Method: PREINCUBATION
# [4] = Test System: AMES SALMONELLA TYPHIMURIUM, Strain/Indicator: TA1537, Metabolic Activation: NONE, Method: PREINCUBATION
# [5] = Test System: AMES SALMONELLA TYPHIMURIUM, Strain/Indicator: TA1538, Metabolic Activation: NONE, Method: PREINCUBATION
# [6] = Test System: E. COLI, Strain/Indicator: WP2 UVRA, Metabolic Activation: NONE, Method: PREINCUBATION
smiles,measurement,setting,value
C#CCNC(=NCCSCc1nc[nH]c1C)NC#N,mutagenic call,[1],inactive; negative
same,mutagenic call,"Test System: AMES SALMONELLA TYPHIMURIUM, Strain/Indicator: TA98, Metabolic Activation: RAT, LIVER, S-9, SODIUM PHENOBARBITAL AND BETA-NAPHTHOFLAVONE, Method: PREINCUBATION",inactive; negative
same,mutagenic call,[2],inactive; negative
same,mutagenic call,"Test System: AMES SALMONELLA TYPHIMURIUM, Strain/Indicator: TA100, Metabolic Activation: RAT, LIVER, S-9, SODIUM PHENOBARBITAL AND BETA-NAPHTHOFLAVONE, Method: PREINCUBATION",inactive; negative
same,mutagenic call,[3],inactive; negative
same,mutagenic call,"Test System: AMES SALMONELLA TYPHIMURIUM, Strain/Indicator: TA1535, Metabolic Activation: RAT, LIVER, S-9, SODIUM PHENOBARBITAL AND BETA-NAPHTHOFLAVONE, Method: PREINCUBATION",inactive; negative
same,mutagenic call,[4],inactive; negative
same,mutagenic call,"Test System: AMES SALMONELLA TYPHIMURIUM, Strain/Indicator: TA1537, Metabolic Activation: RAT, LIVER, S-9, SODIUM PHENOBARBITAL AND BETA-NAPHTHOFLAVONE, Method: PREINCUBATION",inactive; negative
same,mutagenic call,[5],inactive; negative
same,mutagenic call,"Test System: AMES SALMONELLA TYPHIMURIUM, Strain/Indicator: TA1538, Metabolic Activation: RAT, LIVER, S-9, SODIUM PHENOBARBITAL AND BETA-NAPHTHOFLAVONE, Method: PREINCUBATION",inactive; negative
same,mutagenic call,"Test System: CHINESE HAMSTER V-79, Strain/Indicator: V-79/6-THIOGUANINE, Metabolic Activation: NONE, Method: STANDARD PLATE",inactive; negative
same,mutagenic call,"Test System: CHINESE HAMSTER V-79, Strain/Indicator: V-79/6-THIOGUANINE, Metabolic Activation: RAT, LIVER, S-9, SODIUM PHENOBARBITAL AND BETA-NAPHTHOFLAVONE, Method: STANDARD PLATE",inactive; negative
same,mutagenic call,"Test System: CHINESE HAMSTER V-79, Strain/Indicator: V-79/OUABAIN, Metabolic Activation: NONE, Method: STANDARD PLATE",inactive; negative
same,mutagenic call,"Test System: CHINESE HAMSTER V-79, Strain/Indicator: V-79/OUABAIN, Metabolic Activation: RAT, LIVER, S-9, SODIUM PHENOBARBITAL AND BETA-NAPHTHOFLAVONE, Method: STANDARD PLATE",inactive; negative
same,mutagenic call,"Test System: E. COLI, Strain/Indicator: WP2 (PKM101), Metabolic Activation: NONE, Method: PREINCUBATION",inactive; negative
same,mutagenic call,"Test System: E. COLI, Strain/Indicator: WP2 (PKM101), Metabolic Activation: RAT, LIVER, S-9, SODIUM PHENOBARBITAL AND BETA-NAPHTHOFLAVONE, Method: PREINCUBATION",inactive; negative
same,mutagenic call,"Test System: E. COLI, Strain/Indicator: WP2, Metabolic Activation: NONE, Method: PREINCUBATION",inactive; negative
same,mutagenic call,"Test System: E. COLI, Strain/Indicator: WP2, Metabolic Activation: RAT, LIVER, S-9, SODIUM PHENOBARBITAL AND BETA-NAPHTHOFLAVONE, Method: PREINCUBATION",inactive; negative
same,mutagenic call,"Test System: E. COLI, Strain/Indicator: WP2 UVRA (PKM101), Metabolic Activation: NONE, Method: PREINCUBATION",inactive; negative
same,mutagenic call,"Test System: E. COLI, Strain/Indicator: WP2 UVRA (PKM101), Metabolic Activation: RAT, LIVER, S-9, SODIUM PHENOBARBITAL AND BETA-NAPHTHOFLAVONE, Method: PREINCUBATION",inactive; negative
same,mutagenic call,[6],inactive; negative
same,mutagenic call,"Test System: E. COLI, Strain/Indicator: WP2 UVRA, Metabolic Activation: RAT, LIVER, S-9, SODIUM PHENOBARBITAL AND BETA-NAPHTHOFLAVONE, Method: PREINCUBATION",inactive; negative
COC(=O)C1=C(C)NC(C)=C(C(=O)OCCc2ccc(N3CCN(C(c4ccccc4)c4ccccc4)CC3)cc2)C1c1cccc([N+](=O)[O-])c1 (stereo not drawn),mutagenic call,[1],inactive; negative
same,mutagenic call,"Test System: AMES SALMONELLA TYPHIMURIUM, Strain/Indicator: TA98, Metabolic Activation: RAT, LIVER, S-9, PHENOBARBITAL AND 5,6-BENZOFLAVONE, Method: PREINCUBATION",inactive; negative
same,mutagenic call,[2],inactive; negative
same,mutagenic call,"Test System: AMES SALMONELLA TYPHIMURIUM, Strain/Indicator: TA100, Metabolic Activation: RAT, LIVER, S-9, PHENOBARBITAL AND 5,6-BENZOFLAVONE, Method: PREINCUBATION",inactive; negative
same,mutagenic call,[3],inactive; negative
same,mutagenic call,"Test System: AMES SALMONELLA TYPHIMURIUM, Strain/Indicator: TA1535, Metabolic Activation: RAT, LIVER, S-9, PHENOBARBITAL AND 5,6-BENZOFLAVONE, Method: PREINCUBATION",inactive; negative
same,mutagenic call,[4],inactive; negative
same,mutagenic call,"Test System: AMES SALMONELLA TYPHIMURIUM, Strain/Indicator: TA1537, Metabolic Activation: RAT, LIVER, S-9, PHENOBARBITAL AND 5,6-BENZOFLAVONE, Method: PREINCUBATION",inactive; negative
same,mutagenic call,[6],inactive; negative
same,mutagenic call,"Test System: E. COLI, Strain/Indicator: WP2 UVRA, Metabolic Activation: RAT, LIVER, S-9, PHENOBARBITAL AND 5,6-BENZOFLAVONE, Method: PREINCUBATION",inactive; negative
COc1ccc([Se]c2ccc(OC)cc2)cc1,mutagenic call,"Test System: AMES SALMONELLA TYPHIMURIUM, Strain/Indicator: TA97A, Metabolic Activation: NONE, Method: STANDARD PLATE",inactive; negative
same,mutagenic call,"Test System: AMES SALMONELLA TYPHIMURIUM, Strain/Indicator: TA100, Metabolic Activation: NONE, Method: STANDARD PLATE",active; positive
COc1ccc2c(CBr)cc(=O)oc2c1,mutagenic call,[1],inactive; negative
same,mutagenic call,"Test System: AMES SALMONELLA TYPHIMURIUM, Strain/Indicator: TA98, Metabolic Activation: RAT, LIVER, S-9, PCB, Method: PREINCUBATION",inactive; negative
same,mutagenic call,[2],inactive; negative
same,mutagenic call,"Test System: AMES SALMONELLA TYPHIMURIUM, Strain/Indicator: TA100, Metabolic Activation: RAT, LIVER, S-9, PCB, Method: PREINCUBATION",inactive; negative
same,mutagenic call,[6],inactive; negative
NC(=O)N(c1ccccc1)c1ccc(C(=O)O)cc1,mutagenic call,"Test System: AMES SALMONELLA TYPHIMURIUM, Strain/Indicator: TA98, Metabolic Activation: MAIZE SEEDLING, S-14, Method: PREINCUBATION",active; positive
same,mutagenic call,"Test System: AMES SALMONELLA TYPHIMURIUM, Strain/Indicator: TA98, Metabolic Activation: MOUSE, LIVER, S-9, Method: PREINCUBATION",inactive; negative
same,mutagenic call,[1],inactive; negative
same,mutagenic call,"Test System: AMES SALMONELLA TYPHIMURIUM, Strain/Indicator: TA100, Metabolic Activation: MAIZE SEEDLING, S-14, Method: PREINCUBATION",inactive; negative
same,mutagenic call,"Test System: AMES SALMONELLA TYPHIMURIUM, Strain/Indicator: TA100, Metabolic Activation: MOUSE, LIVER, S-9, Method: PREINCUBATION",inactive; negative
same,mutagenic call,[2],inactive; negative
same,mutagenic call,[3],inactive; negative
same,mutagenic call,[4],inactive; negative
same,mutagenic call,[5],inactive; negative
